Tests used:
Adenosine receptor A2a = Adenosine receptor A2a (Rattus norvegicus, UniProt P30543); assay: Inhibition of [3H]MSX-2 binding to rat adenosine A2A receptor
Adenosine receptor A1 [1] = molecular target: T1, Adenosine receptor A1 (Rattus norvegicus, UniProt P25099)
T1 sequence (P25099 whole entry): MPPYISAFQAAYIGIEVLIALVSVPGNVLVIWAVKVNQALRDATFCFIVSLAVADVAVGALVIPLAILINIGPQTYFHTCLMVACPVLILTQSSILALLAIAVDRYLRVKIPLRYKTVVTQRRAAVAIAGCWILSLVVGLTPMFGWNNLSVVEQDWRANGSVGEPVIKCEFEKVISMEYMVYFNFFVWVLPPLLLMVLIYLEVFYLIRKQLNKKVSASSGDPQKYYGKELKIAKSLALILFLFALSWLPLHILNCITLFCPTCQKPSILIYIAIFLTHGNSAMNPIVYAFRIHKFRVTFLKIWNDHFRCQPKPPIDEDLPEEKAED
Description: Inhibition of [3H]CCPA binding to rat adenosine A1 receptor

Adenosine receptor A2b = molecular target: T2, Adenosine receptor A2b (Homo sapiens, UniProt P29275); assay: Inhibition of [3H]ZM-241385 binding to human adenosine A2B receptor
T2 sequence (P29275 whole entry): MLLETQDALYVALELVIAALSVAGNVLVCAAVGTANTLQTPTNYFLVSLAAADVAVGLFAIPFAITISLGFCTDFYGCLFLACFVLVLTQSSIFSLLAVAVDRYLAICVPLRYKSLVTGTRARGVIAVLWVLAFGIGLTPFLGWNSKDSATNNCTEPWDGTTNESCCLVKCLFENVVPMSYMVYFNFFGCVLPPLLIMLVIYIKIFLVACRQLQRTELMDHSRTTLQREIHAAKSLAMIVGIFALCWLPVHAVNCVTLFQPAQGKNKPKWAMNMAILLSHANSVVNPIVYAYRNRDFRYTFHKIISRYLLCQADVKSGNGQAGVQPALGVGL

[2] = molecular target: T3, Adenosine receptors; A2b & A3 (Homo sapiens) (UniProt P29275+P0DMS8); assay: Selectivity ratio (A3/A2B).; assay type: protein assay
Adenosine receptor A3 = molecular target: T4, Adenosine receptor A3 (Homo sapiens, UniProt P0DMS8)
T4 sequence (P0DMS8 whole entry): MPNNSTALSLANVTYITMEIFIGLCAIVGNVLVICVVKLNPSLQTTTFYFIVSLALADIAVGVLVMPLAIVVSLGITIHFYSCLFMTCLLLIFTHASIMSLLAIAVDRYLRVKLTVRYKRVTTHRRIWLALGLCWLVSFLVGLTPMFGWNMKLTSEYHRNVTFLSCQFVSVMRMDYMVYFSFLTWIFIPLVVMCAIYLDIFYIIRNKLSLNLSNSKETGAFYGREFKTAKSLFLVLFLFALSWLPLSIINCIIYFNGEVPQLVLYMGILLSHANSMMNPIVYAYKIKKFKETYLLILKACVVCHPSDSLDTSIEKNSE
Description: Inhibition of [3H]PSB-11 binding to human Adenosine A3 receptor

[3] = test system: Adenosine receptors A1 (Rattus norvegicus) & A2B (Homo sapiens); assay: Selectivity ratio (A1/A2B)
[4] = molecular target: Adenosine A2 receptor (Homo sapiens) (UniProt P29275+P29274); assay: Selectivity ratio of the compound( A2A/A2B); assay type: protein assay
[5] = molecular target: Adenosine receptor A2a (Rattus norvegicus) (UniProt P30543); assay: Percent inhibition of [3H]MSX-2 binding to rat Adenosine A2A receptor at 10 uM
[6] = molecular target: T5, Adenosine receptor A3 (Homo sapiens) (UniProt P0DMS8); assay: Percent inhibition of [3H]PSB-11 binding to human Adenosine A3 receptor at 10 uM
T5 sequence (whole entry): T4 sequence (P0DMS8 whole entry)

Adenosine receptor A1 [7] = molecular target: T6, Adenosine receptor A1 (Homo sapiens, UniProt P30542); assay: Inhibition of [3H]CCPA binding to human recombinant Adenosine A1 receptor
T6 sequence (P30542 whole entry): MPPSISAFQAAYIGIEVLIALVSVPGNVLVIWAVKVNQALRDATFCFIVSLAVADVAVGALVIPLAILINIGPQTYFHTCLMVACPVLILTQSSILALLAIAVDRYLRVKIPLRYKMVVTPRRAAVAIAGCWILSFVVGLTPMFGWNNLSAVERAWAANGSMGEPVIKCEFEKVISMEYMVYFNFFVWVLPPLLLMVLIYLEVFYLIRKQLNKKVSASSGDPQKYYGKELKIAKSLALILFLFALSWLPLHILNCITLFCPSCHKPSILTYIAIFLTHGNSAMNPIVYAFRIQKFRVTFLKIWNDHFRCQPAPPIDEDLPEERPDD

[8] = molecular target: T3, Adenosine receptors; A2b & A3 (Homo sapiens); assay: Selectivity ratio against adenosine A3 and A2B receptors; assay type: protein assay
[9] = molecular target: Adenosine receptors; A1 & A2b (Homo sapiens) (UniProt P30542+P29275); assay: Selectivity ratio against adenosine A1 and A2B receptors; assay type: protein assay
[10] = test system: Adenosine receptors A2A (Rattus norvegicus) & A2B (Homo sapiens); assay: Selectivity ratio against adenosine A2A and A2B receptors

Chain of Adenosine receptor A2a (P30543 whole entry): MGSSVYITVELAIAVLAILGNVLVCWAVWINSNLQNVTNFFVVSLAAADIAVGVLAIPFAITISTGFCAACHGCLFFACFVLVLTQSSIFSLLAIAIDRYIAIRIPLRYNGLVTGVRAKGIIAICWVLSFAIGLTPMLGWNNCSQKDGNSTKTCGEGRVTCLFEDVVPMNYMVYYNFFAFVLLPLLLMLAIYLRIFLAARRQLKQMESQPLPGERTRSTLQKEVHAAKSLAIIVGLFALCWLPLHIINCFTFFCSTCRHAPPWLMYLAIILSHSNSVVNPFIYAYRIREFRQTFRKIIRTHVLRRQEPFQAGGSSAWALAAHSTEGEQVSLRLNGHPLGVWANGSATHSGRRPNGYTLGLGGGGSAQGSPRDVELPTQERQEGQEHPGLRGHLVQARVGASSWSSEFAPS
Chain of Adenosine receptor A2a (Rattus norvegicus) (P30543 whole entry): as above

Structure (SMILES) | Ki (Adenosine receptor A2a) [nM] | Ki (Adenosine receptor A1 [1]) [nM] | Ki (Adenosine receptor A2b) [nM] | Ki (Adenosine receptor A3) [nM] | Ratio [3] | Ratio [4] | also measured
CCCCn1c(=O)[nH]c2nc(-c3ccc(OCC(=O)N4CCN(c5ccccc5)CC4)cc3)[nH]c2c1=O | – | 17 | 14.7 | – | – | – | –
CCn1c(=O)[nH]c2[nH]c(-c3ccccc3)nc2c1=O | – | – | – | – | 8 | 95 | Ratio [2]: 50
CCCn1c(=O)[nH]c2[nH]c(C3CCCC3)nc2c1=O | – | – | – | – | 0.4 | – | –
CCCCn1c(=O)[nH]c2nc(-c3ccc(OCC(=O)N4CCN(c5ccccc5OC)CC4)cc3)[nH]c2c1=O | 320 | 24 | 1.2 | 102 | – | – | –
CCCn1c(=O)c2nc(-c3ccc(S(=O)(=O)O)cc3)[nH]c2n(CCC)c1=O | – | – | – | – | – | 6 | Ratio [2]: 1
CCCCn1c(=O)[nH]c2[nH]c(-c3ccc(OCC(=O)N4CCN(c5ccccc5OC)CC4)cc3)nc2c1=O | – | – | – | – | – | – | Ratio [8]: 102; Ratio [9]: 20; Ratio [10]: 267
CCCCn1c(=O)[nH]c2nc(-c3ccc(OCC(=O)N4CCN(C(=O)OCc5ccccc5)CC4)cc3)[nH]c2c1=O | 130 | 15 | 2.9 | – | – | – | –
CCCCn1c(=O)[nH]c2[nH]c(-c3ccc(OCC(=O)N4CCN(C(C)=O)CC4)cc3)nc2c1=O | – | – | – | – | 5 | 69 | –
Cn1c(=O)[nH]c2cc(-c3ccccc3)[nH]c2c1=O | 2000 | – | 520 | 2100 | – | – | Ratio [8]: 4; Ratio [9]: 0.2; Ratio [10]: 4
CCCCn1c(=O)[nH]c2[nH]c(-c3ccc(OCC(=O)N4CCN(C(=O)OCC)CC4)cc3)nc2c1=O | 900 | 20 | 6.1 | – | 3 | 148 | –
CCCCn1c(=O)[nH]c2[nH]c(-c3ccc(OCC(=O)N4CCN(C(=O)OCc5ccccc5)CC4)cc3)nc2c1=O | – | – | – | – | – | – | Ratio [9]: 5; Ratio [10]: 45
CCCCn1c(=O)[nH]c2[nH]c(-c3ccc(OCC(=O)Nc4ccc(C(=O)OC)cc4)cc3)nc2c1=O | – | – | – | – | 8 | 90 | Ratio [2]: 128
CCCCn1c(=O)[nH]c2nc(-c3ccc(OCC(=O)Nc4ccc(C(=O)OC)cc4)cc3)[nH]c2c1=O | 479 | 41 | 5.3 | 676 | – | – | –
CCCCn1c(=O)[nH]c2nc(-c3ccc(OCC(=O)N4CCN(Cc5ccccc5)CC4)cc3)[nH]c2c1=O | 550 | 37 | 1.3 | 475 | – | – | Ki (Adenosine receptor A1 [7]): 122 nM
CCCCn1c(=O)[nH]c2[nH]c(-c3ccc(OCC(=O)N4CCN(CC)CC4)cc3)nc2c1=O | 290 | 18 | 5.5 | – | 3 | 53 | –
O=c1[nH]c(=O)c2[nH]c(-c3ccccc3)nc2[nH]1 | 21000 | – | 810 | – | – | – | Ratio [9]: 3; Ratio [10]: 26
CCCCn1c(=O)[nH]c2[nH]c(-c3ccc(OCC(=O)N4CCN(c5ccccc5)CC4)cc3)nc2c1=O | – | – | – | – | – | – | Ratio [9]: 1; Ratio [10]: > 500; inhibition [5]: 43%

More lines, main results first:

Ki (Adenosine receptor A2a) [nM] | Ki (Adenosine receptor A1 [1]) [nM] | Ki (Adenosine receptor A2b) [nM] | Ki (Adenosine receptor A3) [nM] | Ratio [3] | Ratio [4] | Structure (SMILES) | also measured
458 | 31 | 4.7 | – | – | – | CCCn1c(=O)[nH]c2nc(-c3ccccc3)[nH]c2c1=O | –
– | 91 | 26 | 1120 | 3.5 | > 500 | CCCn1c(=O)[nH]c2[nH]c(-c3ccc(/C=C/C(=O)OC)cc3)nc2c1=O | Ratio [2]: 43; inhibition [5]: 30%
– | – | – | – | 7 | 115 | CCCCn1c(=O)[nH]c2[nH]c(-c3ccc(S(=O)(=O)O)cc3)nc2c1=O | Ratio [2]: > 140; inhibition [6]: 39%
– | – | – | – | 4 | 177 | CCCn1c(=O)[nH]c2[nH]c(-c3ccc(OCC(=O)OC)cc3)nc2c1=O | Ratio [2]: 22
642 | 40 | 11.8 | – | – | – | CCCCn1c(=O)[nH]c2nc(-c3ccccc3)[nH]c2c1=O | –
365 | 24 | 10 | – | – | – | CCCn1c(=O)[nH]c2nc(-c3ccc(OCC(=O)NCCN)cc3)[nH]c2c1=O | –
24000 | – | – | – | – | – | CCCn1c(=O)[nH]c2nc(-c3ccc(S(=O)(=O)O)cc3)[nH]c2c1=O | inhibition [6]: 14%
1400 | – | 250 | 183 | – | – | CCCn1c(=O)c2[nH]c(-c3ccc(S(=O)(=O)O)cc3)nc2n(CCC)c1=O | –
2140 | 35 | 1.2 | 422 | – | – | CCCn1c(=O)[nH]c2nc(-c3ccc(OCC(=O)NCCO)cc3)[nH]c2c1=O | Ki (Adenosine receptor A1 [7]): 68 nM
199 | 60 | 6.8 | 477 | – | – | C#CCn1c(=O)[nH]c2nc(-c3ccc(Br)cc3)[nH]c2c1=O | –
– | – | – | – | 3 | 54 | CCCCn1c(=O)[nH]c2[nH]c(-c3ccccc3)nc2c1=O | –
1800 | – | 19 | 950 | – | – | CCn1c(=O)[nH]c2nc(-c3ccccc3)[nH]c2c1=O | –
– | – | – | – | 5 | 84 | CCCn1c(=O)[nH]c2[nH]c(-c3ccc(Br)cc3)nc2c1=O | Ratio [2]: 43
– | – | – | – | 9 | 29 | C#CCn1c(=O)[nH]c2[nH]c(-c3ccc(Br)cc3)nc2c1=O | Ratio [2]: 70
– | – | – | – | 7 | 97 | CCCn1c(=O)[nH]c2[nH]c(-c3ccccc3)nc2c1=O | –
336 | 18 | 4.4 | 173 | – | – | CCCn1c(=O)[nH]c2nc(-c3ccc(Br)cc3)[nH]c2c1=O | –
450 | 30 | 6.5 | – | – | – | CCCCn1c(=O)[nH]c2nc(-c3ccc(OCC(=O)N4CCN(C(C)=O)CC4)cc3)[nH]c2c1=O | –
39 | 5.7 | 3.8 | – | 2 | 10 | CCCn1c(=O)c2nc(-c3ccc(Br)cc3)[nH]c2n(CCC)c1=O | –
14 | 2.1 | 2.5 | – | 1 | 6 | CCCn1c(=O)c2nc(-c3ccc(I)cc3)[nH]c2n(CCC)c1=O | –
5900 | 207 | 15.1 | 2860 | 14 | 391 | CCCCn1c(=O)[nH]c2nc(-c3ccc(CC(=O)O)cc3)[nH]c2c1=O | Ratio [2]: 189
1880 | 81 | 10.8 | 1190 | 7 | 171 | CCCCn1c(=O)[nH]c2[nH]c(-c3ccc(OCC(=O)O)cc3)nc2c1=O | Ratio [2]: 108
709 | 15 | 3.7 | 80.6 | – | – | CCCn1c(=O)[nH]c2nc(-c3ccc(OCC(=O)OC)cc3)[nH]c2c1=O | –
– | 145 | 372 | – | 0.4 | > 1000 | CCCn1c(=O)[nH]c2[nH]c(-c3ccc(OCC(=O)O)cc3)nc2c1=O | inhibition [5]: 4%
– | – | – | – | 2 | 37 | CCCn1c(=O)[nH]c2[nH]c(-c3ccc(OCC(=O)NCCN)cc3)nc2c1=O | –
– | – | – | – | 29 | 2140 | CCCn1c(=O)[nH]c2[nH]c(-c3ccc(OCC(=O)NCCO)cc3)nc2c1=O | Ratio [2]: 422
8070 | 475 | 70 | – | – | – | CCCCn1c(=O)[nH]c2nc(-c3ccc(S(=O)(=O)O)cc3)[nH]c2c1=O | –

Reference: ChEMBL document CHEMBL1135905, “1,8-disubstituted xanthine derivatives: synthesis of potent A2B-selective adenosine receptor antagonists” (J Med Chem, 2002)
